The source of these data is the supplement of paper PMC3937590.

Common to all, as to assay: -log10 GI50 (growth inhibition 50%) (-log10(M)); higher = more potent growth inhibition
Assay [1] concerns CAL120. In outline:
(§1)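 A value carrying a < qualifier equals the top dose tested. Each compound was tested in triplicate on breast cancer cell lines for 72 hours at nine doses in 1:5 serial dilution, using a luminescence read-out against a time-zero plate. Nonlinear least squares fitting of a Gompertz curve gave GI50, the molar concentration causing the set level of growth inhibition, which is reported as its negative logarithm. The logarithm is base 10.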

Assay [2] deals with CAL148. In outline:
as §1

In assay [3] the test system is CAL851. In outline: as §1
Assay [4] deals with EFM192A. In outline:
as §1

Assay [5] has as its system EFM192B. In outline:
as §1

Assay [6] deals with EFM192C. In outline:
as §1

The subject of assay [7] is EFM19. In outline: as §1
Assay [8] relates to JIMT1. In outline:
as §1

Assay [9] relates to SUM44PE. In outline:
as §1

Assay [10] deals with 21PT. In outline: as §1

As for `CC(=O)NCC(=O)N1[C@@H]2CC[C@H]1c1ccc(Nc3ncc(C(F)(F)F)c(NC4CCC4)n3)cc12`, the “-log10 GI50” value in [1] worked out at 5.76; in assay [2], 7.04; in assay [3], 5.04; in assay [4] it was 5.09; in assay [5], 5.28; in assay [6], 5.07. For the same compound, the “-log10 GI50” value came to 5.63 in [7] and 5.41 in assay [8].

Turning to `CC(=O)Nc1cccc(-n2c(=O)n(C3CC3)c(=O)c3c(Nc4ccc(I)cc4F)n(C)c(=O)c(C)c32)c1`, in [9], the “-log10 GI50” value was 6.91.

In the case of `CCC[C@H](N[C@H]1CCc2cc(F)cc(F)c2C1)C(=O)Nc1cn(C(C)(C)CNCC(C)(C)C)cn1`, the “-log10 GI50” value in [1] turned out to be 4.76; in assay [2], 4.91; in [3], 5.29; in assay [4] it was 4.58; in [5], 4.8; in assay [6] it was 4.46. The “-log10 GI50” value stood at 4.79 in assay [7] and 4.7 in [8].

Turning to `COc1ccc(-c2cc3c(C)nc(N)nc3n([C@H]3CC[C@H](OCCO)CC3)c2=O)cn1`, the “-log10 GI50” value in [1] turned out to be 6.05; in [2], 6.35; in assay [3] it was 7.4; in assay [4], 6.92; in [5], 6.73; in assay [7] it was 7.42. Moreover, in assay [8], the “-log10 GI50” value was 6.46.

As for `Cn1ncc(Cl)c1-c1cc(C(=O)N[C@H](CN)Cc2ccc(F)c(F)c2)oc1Cl`, the “-log10 GI50” value in [10] was 5.03; in assay [1] it was 5.13; in assay [2] it was 8.06; in assay [3] it was 5.12; in assay [4] it was 7.53; in [5] it was 6.63. Further, the “-log10 GI50” value came out at 7.42 in assay [7] and 5.74 in assay [8].

On to `C=CCNC1=C2C[C@@H](C)C[C@H](OC)[C@H](O)[C@@H](C)/C=C(\C)[C@H](OC(N)=O)[C@@H](OC)/C=C\C=C(/C)C(=O)NC(=CC1=O)C2=O` [17-AAG], for which, in assay [9], the “-log10 GI50” value came to 8.84.

In the case of `CO[C@H]1C[C@@H]2CC[C@@H](C)[C@@](O)(O2)C(=O)C(=O)N2CCCC[C@H]2C(=O)O[C@H]([C@H](C)C[C@@H]2CC[C@@H](O)[C@H](OC)C2)CC(=O)[C@H](C)/C=C(\C)[C@@H](O)[C@@H](OC)C(=O)[C@H](C)C[C@H](C)/C=C/C=C/C=C/1C` [Rapamycin], the “-log10 GI50” value in assay [9] was 9.26.

As to `CC/C(=C(\c1ccccc1)c1ccc(OCCN(C)C)cc1)c1ccccc1` [Tamoxifen], the “-log10 GI50” value in [9] was 7.03.

Turning to `CC[C@@]1(O)C(=O)OCc2c1cc1n(c2=O)Cc2cc3c(CN(C)C)c(O)ccc3nc2-1` [Topotecan], in assay [9], the “-log10 GI50” value is 6.43.
